Earlier results, collected in patent publication US20240260569A1, “DISINFECTANT LIQUID, PREPARATION METHOD THEREOF AND FILM LAYER” (Shanghai Anpas New Materials Science & Technology Co., Ltd., priority 2021, published 2024).
Where two headings read alike, the source gives them in different places.

Tests used:
[1] = aqueous solution
[2] = relative to hypochlorite ions

## O=c1nc([O-])n(Cl)c(=O)n1Cl.[Na+] [Sodium dichloroisocyanurate]
[1]; within a week
  active chlorine loss: about 50%

## OCl [sodium hypochlorite]
other
  pH of a 10% solution: around 12
[1]; pH 9.4, after 14 days at 55° C.
  active chlorine loss: 63%
[1]; pH=8.7, after 14 days at 55° C.
  active chlorine loss: 94%

## OCl [hypochlorous acid]
[2]
  disinfection and sterilization ability versus hypochlorite ions: 80 to 100 times
